According to PubChem BioAssay (NCI):
Where “and” joins values, the source holds several entries; their conditions need not be identical. Equal entries are not always repeated.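 In this assay, cells in 96-well plates receive the compound at five concentrations for 48 hours. Endpoints are linearly interpolated between the surrounding concentrations. GI50 = concentration required for 50% inhibition of growth. TGI marks complete inhibition of growth.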

Columns and labels:
Assay in all cases: NCI anticancer screen, dose series, 48 h
A498 renal = test system: A498 renal
CCRF-CEM leukemia = test system: CCRF-CEM leukemia
HCT-15 colon = test system: HCT-15 colon
M14 melanoma = test system: M14 melanoma
OVCAR-3 ovarian = test system: OVCAR-3 ovarian
RXF 393 renal = test system: RXF 393 renal
SF-268 CNS = test system: SF-268 CNS
SNB-19 CNS = test system: SNB-19 CNS
T-47D breast = test system: T-47D breast
UACC-257 melanoma = test system: UACC-257 melanoma

## COc1cccc2c1C(=O)c1c(O)c3c(c(O)c1C2=O)CC(O)(/C(C)=N/NC(=O)CCC(=O)N/N=C(\C)C1(O)Cc2c(O)c4c(c(O)c2C(OC2CC(N)C(O)C(C)O2)C1)C(=O)c1c(OC)cccc1C4=O)CC3OC1CC(N)C(O)C(C)O1 (stereo not given)
A498 renal
  GI50: 0.161 µM
  TGI: 0.939 µM
CCRF-CEM leukemia
  GI50: 0.113 µM
  TGI: 7.17 µM
HCT-15 colon
  GI50: 3.51 µM
  TGI: > 50 µM
M14 melanoma
  GI50: 0.292 µM
  TGI: 2.12 µM
OVCAR-3 ovarian
  GI50: 0.259 µM
  TGI: 2.66 µM
RXF 393 renal
  GI50: 0.376 µM
  TGI: 1.35 µM
SF-268 CNS
  GI50: 0.259 µM
  TGI: 8.11 µM
SNB-19 CNS
  GI50: 0.198 µM
  TGI: 1.38 µM
T-47D breast
  GI50: 0.172 µM
  TGI: 1.68 µM
UACC-257 melanoma
  GI50: 0.781 µM
  TGI: 3.28 µM

## C[C@H]1Oc2cc(cnc2N)-c2c(nn(C)c2C#N)CN(C)C(=O)c2ccc(F)cc21
A498 renal
  GI50: 0.452 µM
  TGI: > 30.6 µM
CCRF-CEM leukemia
  GI50: > 100 µM
  TGI: > 100 µM
HCT-15 colon
  GI50: 47 µM
  TGI: > 100 µM
M14 melanoma
  GI50: 48.9 µM
  TGI: > 100 µM
OVCAR-3 ovarian
  GI50: > 89.3 µM
  TGI: > 100 µM
RXF 393 renal
  GI50: 16.7 µM
  TGI: > 90.9 µM
SF-268 CNS
  GI50: 27.1 µM
  TGI: > 100 µM
SNB-19 CNS
  GI50: > 100 µM
  TGI: > 100 µM
T-47D breast
  GI50: 36.2 µM
  TGI: > 100 µM
UACC-257 melanoma
  GI50: 25.8 µM
  TGI: > 100 µM

## Ic1ccc(-n2nnnc2-c2cnoc2-c2ccccc2)cc1
A498 renal
  GI50: 22 µM
  TGI: 74.4 µM
CCRF-CEM leukemia
  GI50: 1.21 µM
  TGI: > 48.8 µM
HCT-15 colon
  GI50: 29.1 µM
  TGI: > 73.6 µM
M14 melanoma
  GI50: 37.6 µM
  TGI: > 67.3 µM
OVCAR-3 ovarian
  GI50: 46.4 µM
  TGI: > 100 µM
RXF 393 renal
  GI50: 43.1 µM
  TGI: > 100 µM
SF-268 CNS
  GI50: 54 µM
  TGI: > 100 µM
SNB-19 CNS
  GI50: > 63.1 µM
  TGI: > 100 µM
T-47D breast
  GI50: 48.8 µM
  TGI: > 100 µM
UACC-257 melanoma
  GI50: > 58.5 µM
  TGI: > 100 µM

## O=C(c1c(F)ccc(NS(=O)(=O)N2CC[C@@H](F)C2)c1F)c1c[nH]c2ncc(-c3cnc(C4CC4)nc3)cc12
A498 renal
  GI50: 3.95 µM and 3.77 µM
  TGI: > 10 µM and 23.1 µM
CCRF-CEM leukemia
  GI50: 6.52 µM and 7.64 µM
  TGI: > 100 µM
HCT-15 colon
  GI50: 5.69 µM and 5.21 µM
  TGI: > 10 µM and 40.6 µM
M14 melanoma
  GI50: 0.00625 µM and < 0.01 µM
  TGI: > 4.09 µM and 10.4 µM
OVCAR-3 ovarian
  GI50: > 8.35 µM and 6.04 µM
  TGI: > 10 µM and 57.4 µM
RXF 393 renal
  GI50: 3.46 µM and 4.36 µM
  TGI: > 10 µM and 25 µM
SF-268 CNS
  GI50: 5.86 µM and 6.77 µM
  TGI: > 10 µM and 71.3 µM
SNB-19 CNS
  GI50: > 10 µM and 9.77 µM
  TGI: > 85.4 µM
T-47D breast
  GI50: 2.91 µM and 2.43 µM
  TGI: > 10 µM and 16.5 µM
UACC-257 melanoma
  GI50: 0.00965 µM and < 0.01 µM
  TGI: 0.174 µM and 0.0739 µM

## CCCCCCNC(=O)c1nc(-c2ccccc2)oc1Cc1ccc(OP(=O)(O)O)cc1
A498 renal
  GI50: 12.5 µM
  TGI: 25.1 µM
CCRF-CEM leukemia
  GI50: 24 µM
  TGI: 67 µM
HCT-15 colon
  GI50: 17.8 µM
  TGI: 37.2 µM
M14 melanoma
  GI50: 18 µM
  TGI: 35.5 µM
OVCAR-3 ovarian
  GI50: 17.1 µM
  TGI: 31.4 µM
RXF 393 renal
  GI50: 16.7 µM
  TGI: 31.3 µM
SF-268 CNS
  GI50: 17.3 µM
  TGI: 35.4 µM
SNB-19 CNS
  GI50: 22 µM
  TGI: > 100 µM
T-47D breast
  GI50: 16.5 µM
  TGI: 30.8 µM
UACC-257 melanoma
  GI50: 17.6 µM
  TGI: 35.6 µM

## CCN(CC)CCOc1ccc(/C=C2\CC3C4CC=C5C[C@@H](O)CC[C@]5(C)C4CC[C@]3(C)C2=O)cc1OC (stereo not given in full)
A498 renal
  GI50: 2.84 µM
  TGI: 9.84 µM
CCRF-CEM leukemia
  TGI: > 22 µM
HCT-15 colon
  GI50: 2.27 µM
  TGI: 6.19 µM
M14 melanoma
  GI50: 2.06 µM
  TGI: 4.34 µM
OVCAR-3 ovarian
  GI50: 1.71 µM
  TGI: 9.04 µM
RXF 393 renal
  GI50: 5.64 µM
  TGI: 21.5 µM
SF-268 CNS
  GI50: 7.39 µM
  TGI: > 57.3 µM
SNB-19 CNS
  GI50: 4.67 µM
  TGI: > 64 µM
T-47D breast
  GI50: 2.79 µM
  TGI: > 100 µM
UACC-257 melanoma
  GI50: 2.3 µM
  TGI: 5.5 µM

## NS(=O)(=O)c1ccc(N(/C=C/C(=O)C(F)(F)F)CC(=O)c2ccc(Cl)cc2)cc1
A498 renal
  GI50: > 100 µM
  TGI: > 100 µM
CCRF-CEM leukemia
  GI50: 20.4 µM
  TGI: 44.5 µM
HCT-15 colon
  GI50: 35.5 µM
  TGI: > 100 µM
OVCAR-3 ovarian
  GI50: 31.8 µM
  TGI: > 100 µM
RXF 393 renal
  GI50: > 100 µM
  TGI: > 100 µM
SF-268 CNS
  GI50: 34.5 µM
  TGI: > 100 µM
SNB-19 CNS
  GI50: 51.2 µM
  TGI: > 100 µM
T-47D breast
  GI50: 63.6 µM
  TGI: > 100 µM
UACC-257 melanoma
  GI50: 50.9 µM
  TGI: > 100 µM

## Nc1c(C(=O)Nc2cccc(Br)c2)sc2nc3c(cc12)C(=O)CCC3
A498 renal
  GI50: 0.189 µM
  TGI: 8.33 µM
CCRF-CEM leukemia
  GI50: 0.393 µM
  TGI: > 100 µM
HCT-15 colon
  GI50: 0.468 µM
  TGI: > 100 µM
M14 melanoma
  GI50: 0.568 µM
  TGI: > 100 µM
OVCAR-3 ovarian
  GI50: 0.359 µM
  TGI: > 46.5 µM
RXF 393 renal
  GI50: 0.372 µM
  TGI: 15.9 µM
SF-268 CNS
  GI50: 19.5 µM
  TGI: > 100 µM
SNB-19 CNS
  GI50: 7.34 µM
  TGI: > 100 µM
T-47D breast
  GI50: 2.13 µM
  TGI: > 100 µM
UACC-257 melanoma
  GI50: > 100 µM
  TGI: > 100 µM

## C=CCc1cccc(/C=N/NC(=O)CN2CCN(Cc3ccccc3)CC2)c1O
A498 renal
  GI50: 4.86 µM
  TGI: 18.2 µM
CCRF-CEM leukemia
  GI50: 0.656 µM
  TGI: 7.78 µM
HCT-15 colon
  GI50: 0.693 µM
  TGI: 15.1 µM
M14 melanoma
  GI50: 1.84 µM
  TGI: 13.3 µM
OVCAR-3 ovarian
  GI50: 0.808 µM
  TGI: 6.32 µM
RXF 393 renal
  GI50: 0.638 µM
  TGI: 16.1 µM
SF-268 CNS
  GI50: 1.99 µM
  TGI: 16.4 µM
SNB-19 CNS
  GI50: 5.36 µM
  TGI: 20.1 µM
T-47D breast
  GI50: 2.32 µM
  TGI: 14.9 µM
UACC-257 melanoma
  GI50: 2.46 µM
  TGI: 13.8 µM

## CCOC(=O)C(=Cc1cccc(Cl)c1)C(=O)OCC
A498 renal
  GI50: 11.9 µM
  TGI: 24.2 µM
HCT-15 colon
  GI50: 1.96 µM
  TGI: 5.27 µM
M14 melanoma
  GI50: 2 µM
  TGI: 4.56 µM
OVCAR-3 ovarian
  GI50: 1.86 µM
  TGI: 3.6 µM
RXF 393 renal
  GI50: 1.91 µM
  TGI: 3.53 µM
SF-268 CNS
  GI50: 2.54 µM
  TGI: 7.96 µM
SNB-19 CNS
  GI50: 2.37 µM
  TGI: 6.66 µM
T-47D breast
  GI50: 1.78 µM
  TGI: 4.26 µM
UACC-257 melanoma
  GI50: 5.05 µM
  TGI: 18 µM

## COC12C=C/C(=C(/C(=O)OCc3ccncc3)C(=O)CCCCCCCCC3(OC)C=C/C(=C(/C(=O)OCc4ccncc4)C(=O)CCCCCCCC1)O3)O2
A498 renal
  GI50: 0.78 µM
  TGI: 1.48 µM
CCRF-CEM leukemia
  GI50: 0.0515 µM
  TGI: 2.29 µM
HCT-15 colon
  GI50: 0.548 µM
  TGI: 1.74 µM
M14 melanoma
  GI50: 0.17 µM
  TGI: 0.574 µM
OVCAR-3 ovarian
  GI50: 0.207 µM
  TGI: 0.93 µM
RXF 393 renal
  GI50: 0.277 µM
  TGI: 0.896 µM
SF-268 CNS
  GI50: 1.04 µM
  TGI: 3.28 µM
SNB-19 CNS
  GI50: 1.28 µM
  TGI: 7.17 µM
T-47D breast
  GI50: 0.706 µM
  TGI: 21.5 µM
UACC-257 melanoma
  GI50: 1.14 µM
  TGI: 4.49 µM

## Cn1cnc([N+](=O)[O-])c1S(=O)(=O)Oc1ccccc1
A498 renal
  GI50: 16.8 µM
  TGI: 38.1 µM
CCRF-CEM leukemia
  GI50: 3.75 µM
  TGI: > 100 µM
HCT-15 colon
  GI50: 2.74 µM
  TGI: > 28.4 µM
M14 melanoma
  GI50: 11.1 µM
  TGI: 27.3 µM
OVCAR-3 ovarian
  GI50: 2.14 µM
  TGI: 4.3 µM
RXF 393 renal
  GI50: 2.23 µM
  TGI: 6.04 µM
SF-268 CNS
  GI50: 16.5 µM
  TGI: 48.2 µM
SNB-19 CNS
  GI50: > 100 µM
  TGI: > 100 µM
T-47D breast
  GI50: 2.3 µM
  TGI: 7.73 µM
UACC-257 melanoma
  GI50: 3.84 µM
  TGI: 16.3 µM
